{
  "source": "paper PMC5740082",
  "about": "“Identification of a CARM1 Inhibitor with Potent In Vitro and In Vivo Activity in Preclinical Models of Multiple Myeloma” (Scientific Reports, 2017)",
  "biological_target": "T1, CYP2D6 (Homo sapiens, UniProt P10635)",
  "T1 construct": "with human liver microsomes; from tissue; host or cells: human liver microsomes",
  "T1 sequence (P10635 whole entry)": "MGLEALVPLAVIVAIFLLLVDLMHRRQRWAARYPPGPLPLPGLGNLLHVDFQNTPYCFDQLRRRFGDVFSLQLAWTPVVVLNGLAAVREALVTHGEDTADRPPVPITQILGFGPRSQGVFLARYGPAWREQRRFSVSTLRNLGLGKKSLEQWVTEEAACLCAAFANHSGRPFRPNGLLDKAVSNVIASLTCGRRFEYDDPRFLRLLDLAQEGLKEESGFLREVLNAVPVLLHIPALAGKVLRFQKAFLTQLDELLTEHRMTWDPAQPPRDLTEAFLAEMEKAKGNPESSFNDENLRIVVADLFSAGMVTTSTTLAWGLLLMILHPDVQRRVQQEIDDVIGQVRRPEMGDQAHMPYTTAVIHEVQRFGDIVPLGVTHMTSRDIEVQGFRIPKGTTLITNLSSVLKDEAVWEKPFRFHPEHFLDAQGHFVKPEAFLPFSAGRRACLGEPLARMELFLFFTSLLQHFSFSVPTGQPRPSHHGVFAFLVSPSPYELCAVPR",
  "test": "Cytochrome P450 inhibition",
  "format": "in vitro ADME",
  "settings": "human liver microsomes, tested up to 25 µM",
  "experimental": "Hepatocyte stability, plasma protein binding and cytochrome P450 assays were performed using standard procedures. Details can be found in Supplementary Methods. […]\nCytochrome P450 Inhibition (IC50 Determination) […]\nwith human liver microsomes (0.1 to 1 mg/m L) and NADPH (1 mM) in the presence of specific probe substrates at 37°C. Probe substrates and incubation times were: phenacetin (30 µM, 5 min), tolbutamide (120 µM, 60 min), mephenytoi n (25 µM, 60 min) and dextromethorphan (5 µM, 5 min) for CYP1A2, CYP2C9, CYP2C19 and CYP2D6, respectivel y. For CYP3A4, midazolam (2.5 µM, 5 min) andtestosterone (50 µM, 5 min) were used as probe substrates. […]\nisoform. All reactions were terminated b y addition of methanol prior to cent rifugation and addition of internal standard to the supernatants. For CYP2C9, CYP2C19, CYP2D6 and CYP3A4 (midazolam) incubations, the supernat ants were combined for the simultaneous anal ysis o f 4-h ydrox ytol butamide, 4- hydrox ymephenytoin, dextrorphan and 1-hydrox ymidazolam b y LC-MS/MS. For the CYP1A2 and CYP3A4 (testosterone) incubations, the supernatants were anal yzed individuall y for acetaminophen and 6ß-h ydrox ytestosterone b y LC -MS/MS. A decrease i n the formation of the metabolites compared to vehicle control was used to calculate an IC50 value.",
  "data": [
    {"smiles": "CNC[C@@H](O)COc1ccc(Cl)c(-c2nc(-c3c(C)noc3C)c(C)c(N3CC4(CCN(C(=O)OC)CC4)C3)n2)c1", "note": "[EZM2302]", "values": [
      {"measurement": "CYP2D6 inhibition", "value": "did not inhibit"}
    ]}
  ]
}
